# Test results reported in paper PMC11284787, “Ligand-Directed Labeling of the Adenosine A1 Receptor in Living Cells” (Journal of Medicinal Chemistry, 2024).
# Assays:
# SNAP-A1AR = test system: T1, SNAP-A1AR; test: Confocal A1AR internalisation and Rab5 immunolabelling; assay type: cell-based, human; details: 10 μM agonist 2 h; cells prelabeled with 30 nM 11
# T1 construct: expressed in transfected cells; host or cells: HEK293T, transient transfection (FuGENE HD)
# Source text: A natural concern would be the potential for the covalently transferred fluorophore to prevent access of ligands to the orthosteric binding site of the labeled receptor. To address this question, we employed probe 11 to visualize the internalization pathway of the hA1AR by confocal microscopy. […] Cells were immunolabeled with the Anti-Rab5 monoclonal antibody and visualized by treatment with AF488-conjugated secondary antibody (middle frames, green channel). Right-hand frames show merged images of both magenta and green channels. […] The confocal images are representative of images acquired from three independent experiments. […] 37 °C 5% CO2. […] […] at 37 °C, 5% CO2. […] Cells were […] […] Cells were washed 3x 5 min with PBS.
# NL-hA1AR = target: T2, NL-hA1AR (Homo sapiens, UniProt P30542); test: NanoBRET dissociation kinetics, NL-hA1AR HEK293T cells; assay type: binding; details: NL-hA1AR HEK293T cells, CA200645 preincubated 2 h
# T2 construct: expressed in transfected cells
# T2 sequence (P30542 1-326): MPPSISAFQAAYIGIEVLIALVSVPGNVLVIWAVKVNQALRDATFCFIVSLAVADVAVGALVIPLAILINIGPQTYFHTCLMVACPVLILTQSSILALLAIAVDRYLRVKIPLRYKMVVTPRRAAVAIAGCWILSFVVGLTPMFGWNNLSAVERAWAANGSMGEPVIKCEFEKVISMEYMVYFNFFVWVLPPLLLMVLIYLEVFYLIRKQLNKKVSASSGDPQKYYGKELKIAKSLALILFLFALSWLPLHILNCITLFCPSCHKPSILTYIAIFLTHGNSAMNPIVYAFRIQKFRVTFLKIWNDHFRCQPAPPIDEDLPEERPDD
# Experimental: Figure 3 Molecular pharmacology and biochemical characterization of 11 and 12. NanoBRET ligand-binding data were measured in HEK293 cells stably expressing the human NL-A1AR (A–C) or rat NL-A1AR (D–F). […] Data were normalized to maximal BRET signals in the absence of unlabeled competing ligands (total binding, TB). (C, F) NanoBRET dissociation kinetics experiments with 11 (SulfoCy5) performed in human and rat NL-A1AR HEK293T cells, respectively. Cells were treated with 250 nM 11 (SulfoCy5, lilac open circles) for 5 h and CA200645 (black open triangles) for 2 h. […] TS-SNAP-A1AR was purified and separated on an SDS-PAGEgel gel, and direct Cy5 fluorescence was visualized using in-gel fluorescence. […]
# The small reduction in the BRET signal observed toward the end of the reads could be mostly likely ascribed to substrate (furimazine) consumption. […] To confirm covalent labeling of A1AR by 11 and 12, HEK293G cells stably expressing a Twin-Strep-SNAP-A1AR(TS-SNAP-A1R) construct were treated with 11 or 12 prior to purification, separation by sodium dodecyl sulfate-polyacrylamide gel electrophoresis (SDS-PAGE) and visualization of labeled samples by in-gel fluorescence (Figure 3G). […]
# 37 °C for kinetic binding experiments. Emissions were read at 420 nm (80 nm bandpass; […]
Compound,localization of SulfoCy5-labeled SNAP-A1AR at the plasma membrane after agonist (SNAP-A1AR),time for BRET signal to return to baseline after addition of 10 μM DPCPX (NL-hA1AR)
"OC[C@H]1O[C@@H](n2cnc3c(NC4CCCC4)nc(Cl)nc32)[C@H](O)[C@@H]1O [CCPA, 2-chloro-N^6-cyclopentyladenosine]",markedly reduced,–
CA200645 [reference compound],–,≤ 4.7 min
